The source of these data is US5817455A, “Method for in vitro inactivation of RNase S” (Novagen, Inc., priority 1996, dated 1998).

The test system of one assay is Ribonuclease S. The experiment in a line: Ribonuclease S activity, degradation of yeast polymeric RNA (absorbance at 255 nm). Type of assay: biochemical, bovine. The following applies: for effect on RNase S activity (in words): consecutive addition to S-protein + bS15 reaction mix; for Activity: initial velocity relative to S-protein (50 ng) plus S15 (10 μg) = 100%, consecutive addition of S-protein (50 ng), bS15 (approx. 5 μg), streptavidin (10 μg), S15 (5 μg), 75 ug/mL yeast RNA, pH 7.0, 25° C., 2 minutes. On the procedure:
Ribonuclease S activity was measured in terms of degradation of yeast polymeric RNA. Degradation was monitored as an increase in absorbance at 255 nm of the reaction cocktail. The reaction cocktail included 50 mM imidazole.HCl buffer, pH 7.0, 0.1 M NaCl, and 75 ug/mL yeast RNA, in a volume of 800 uL. The change in absorbance was monitored at 25° C. for 2 minutes following the consecutive addition of S-protein (50 ng), bS15 (approx. 5 μg), streptavidin (10 μg), and authentic S15 (5 μg).
For comparison, the degradative activity in a reaction mix containing S-protein (50 ng) plus S15 (10 μg) is defined to be 100%. […] The initial velocity of each reaction was determined from the initial slope of a plot of absorbance v. time.

The subject of the next assay is S-protein. The following applies: cited from earlier work.

As for “S15: truncated S-peptide formed from the first 15 residues of the S-peptide, SEQ ID NO:1 (KETAAAKFERQHMDS)”, in the assay on Ribonuclease S, the “effect on RNase S activity (in words)” value was “RNase S activity could be reconstituted” and the Activity is 40%. Further, the “binding to S-protein compared with intact S-peptide” value in the assay with S-protein (truncated S-peptide, first 15 residues) is listed as “binds equally well”.

“S-peptide: residues 1-20 of RNase A, subtilisin cleavage product”: at S-protein (S-peptide and S-protein, read-out: dissociation constant), the Kd is 1 nM.

Consider streptavidin, for which, in the assay on Ribonuclease S, the “effect on RNase S activity (in words)” value was “sufficient to inactivate RNase S” and the Activity is < 0.01%.
